In publication PMC3790851, “Improved Mass Spectrometry Assay For Plasma Hepcidin: Detection and Characterization of a Novel Hepcidin Isoform” (PLoS ONE, 2013):
Bridge positions count the residues as written; N and C are the ends. Peptide text beside a SMILES is read from it.

Tests used:
in vitro [1] = conditions: human
Procedure: (§1) Samples were used for measurement of hepcidin between 4–7 hrs after blood drawing and/or pooled and/or stored in aliquots at various temperatures for prolonged periods of time.
(§2) Fresh samples were measured within 2–4 hrs hours after blood drawing and stored in aliquots at various temperatures for prolonged incubation.
(§3) Mass-to-charge (m/z) spectra were generated by using MALDI-TOF MS (Microflex LT, Bruker Daltonics). Spectra were analyzed by using Bruker Daltonics FlexAnalysis software. […] Total hepcidin concentration was defined as the sum of hepcidin-25, -24, -22, and -20 concentrations.
(§4) Using the novel heavy hepcidin-25 internal standard, we assessed changes in hepcidin-25 and the smaller isoforms in various samples containing various anticoagulants ex vivo at room temperature (RT), 4°C, −20°C and −80°C. More specifically, changes in hepcidin concentrations relative to those found in freshly collected samples were determined i) at storage at RT and 4°C on day 0 (fresh samples), 1 (14–22 hrs), 2, 3, and 7 days after sampling/storage, ii) at −20°C after 1 week, and after 1, 4 and 6 months of storage and iii) at −80°C at after 6 months of storage.

[2] = Stability of hepcidin in plasma/serum at room temperature (WCX-TOF MS); format: in vitro ADME, human; conditions: for Hepcidin level after one week at RT / Hepcidin level after one day at RT: % of fresh sample, human heparin plasma, 19 IC patients + 5 controls, results <1.0 nM removed, WCX-TOF MS, hepcidin-25^+40 internal standard, n = 24/15/13/18/11; for Hepcidin level after one week at RT: CV (Hep-25/-24/-22/-20/Total) 23/29/29/38/17; for Hepcidin level after one day at RT: CV (Hep-25/-24/-22/-20/Total) 8/21/14/25/5; for Hepcidin level after one week at RT, without protease inhibitors / Hepcidin level after one day at RT, without protease inhibitors: results <1 nM excluded; for Hepcidin level after one week at RT, without protease inhibitors: CV (Hep-25/-24/-22/-20) 30/31/23/41; for Hepcidin level after one day at RT, without protease inhibitors: CV (Hep-25/-24/-22/-20) 13/20/11/11; for remaining at 168 h / remaining at 1 day: human; for remaining at 168 h: read-out: Hepcidin level after one week at RT, with protease inhibitors; for remaining at 1 day: read-out: Hepcidin level after one day at RT, with protease inhibitors
Procedure: Spectra were analyzed by using Bruker Daltonics FlexAnalysis software.
To assess the stability of hepcidin in serum and plasma matrices, we kept samples from intensive care patients (n = 20) and healthy controls (n = 5) at room temperature for 0–7 days followed by WCX-TOF MS analysis using the hepcidin-25^+40 internal standard. […] For the samples at day 1 and day 7, the mean decrease in hepcidin-25 for the 5 controls and 20 intensive care patients was 90% (CV, 8% ) and 55% (CV, 23%), respectively (Table 3).

[3] = average, % of fresh, 10 IC patients and 5 controls; for Hepcidin level after one day at 4°C, EDTA plasma: CV (Hep-25/-24/-22/-20) 11/6/11/22
Procedure: as §1, §2, §3, §4

[4] = target: T1, green fluorescent protein (GFP)-fused human ferroportin (Homo sapiens, UniProt Q9NP59); test: Hepcidin bioactivity assay: GFP-ferroportin internalization and degradation; format: cell-based; conditions: for potency as inducer of ferroportin degradation: synthetic peptides, compared with hepcidin-25
T1 construct: expressed in transfected cells
T1 sequence (Q9NP59 1-571): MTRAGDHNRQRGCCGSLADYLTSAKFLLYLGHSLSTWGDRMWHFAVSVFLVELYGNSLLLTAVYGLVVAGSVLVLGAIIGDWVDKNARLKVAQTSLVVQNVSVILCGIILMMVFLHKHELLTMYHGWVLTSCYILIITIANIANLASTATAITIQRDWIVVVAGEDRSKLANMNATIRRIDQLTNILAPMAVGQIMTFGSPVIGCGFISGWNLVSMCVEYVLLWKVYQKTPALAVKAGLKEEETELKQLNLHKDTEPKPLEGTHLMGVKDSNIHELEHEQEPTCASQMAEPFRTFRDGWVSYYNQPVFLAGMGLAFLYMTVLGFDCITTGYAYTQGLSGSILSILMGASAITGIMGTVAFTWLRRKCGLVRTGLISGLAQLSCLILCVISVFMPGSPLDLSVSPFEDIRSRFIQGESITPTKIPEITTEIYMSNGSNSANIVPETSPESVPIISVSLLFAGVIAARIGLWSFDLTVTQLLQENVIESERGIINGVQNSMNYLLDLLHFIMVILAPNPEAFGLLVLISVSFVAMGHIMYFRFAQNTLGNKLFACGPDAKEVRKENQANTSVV
Text: A stable cell line engineered for inducible expression of green fluorescent protein (GFP)-fused human ferroportin was used as a test system to determine hepcidin-24 activity relative to hepcidin-25, 22 and 20. In this cell system, ferroportin internalization and degradation provided a means to quantify hepcidin activity. The assay was implemented basically as described by Nemeth et al., [33] except that fluorescence was quantified in triplicate wells on a microplate reader. To determine EC50 values for hepcidin-25 and hepcidin-24, a curve was fitted by nonlinear regression with a four parameter logistic equation using Prism v5 (GraphPad).
Figure 5 Hepcidin-mediated ferroportin internalization. Different concentrations of synthetic hepcidin-25, -24, -22 and -20 (indicated in nM on the horizontal axis) were added to the growth medium of a stable cell line that expresses green fluorescent protein-fused ferroportin (GFP-FPN). Hepcidin-mediated GFP-FPN internalization and degradation was quantified by measuring cellular fluorescence levels in arbitrary units.

in vitro [5] = conditions: human; remark: listed apart in the source
Procedure: as §1, §2, §3, §4

[6] = average, % of fresh, 10 IC patients and 5 controls, n = 15/8/6/9, hepcidin-20 unreliable (additional peak); for Hepcidin level after one week at -20°C, EDTA plasma: CV (Hep-25/-24/-22/-20) 11/12/11/28
Procedure: as §1, §2, §3, §4

[7] = average, % of fresh, 7 days, heparin plasma, 10 IC patients, n = 10/8/7/8
[8] = average, % of fresh, heparin plasma, 10 IC patients, n = 10/8/7/8
[9] = average, % of fresh, 7 days, heparin plasma, 10 IC patients, Complete Mini (Roche), CV (Hep-25/-24/-22/-20) 25/35/9/25, n = 10/8/7/8
[10] = average, % of fresh, heparin plasma, 10 IC patients, Complete Mini (Roche), 1 tablet in 200 µL PBS, 20 µL per 1 ml plasma, CV (Hep-25/-24/-22/-20) 8/30/4/14, n = 10/8/7/8
[11] = results <1.0 nM deleted, n = 15/8/6/9
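For Hepcidin level after one month at -20°C, EDTA plasma in this document: hepcidin in stored plasma or serum quantified by MALDI-TOF MS against a heavy hepcidin-25 internal standard, expressed relative to concentrations in freshly collected samples.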
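For Hepcidin level after one week at -20°C, EDTA plasma in this document: hepcidin in stored plasma or serum quantified by MALDI-TOF MS against a heavy hepcidin-25 internal standard, expressed relative to concentrations in freshly collected samples.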

Row | Compound | remaining at 168 h (in vitro [1]; EDTA plasma) | remaining at 168 h (in vitro [1]; heparin plasma) | Hepcidin level after one week at RT ([2]; average, 7 days) | Hepcidin level after one day at RT ([2]; average) | Hepcidin level after one week at RT, without protease inhibitors [2, 7] | Hepcidin level after one day at RT, without protease inhibitors [2, 8] | remaining at 168 h [2, 9] | remaining at 1 day [2, 10] | Hepcidin level after one day at 4°C, EDTA plasma [3, 11] | activity relative to hepcidin-24 (fold lower) [4] | potency as inducer of ferroportin degradation [4] | remaining at 672 h (in vitro [5]; EDTA plasma) | remaining at 672 h (in vitro [5]; heparin plasma) | Hepcidin level after one week at -20°C, EDTA plasma [6] | further results
1 | CC[C@H](C)[C@@H]1NC(=O)[C@@H](NC(=O)[C@@H](NC(=O)[C@@H]2CCCN2C(=O)[C@@H](N)Cc2ccccc2)[C@@H](C)CC)CSSC[C@@H](C(=O)N[C@@H](CCCCN)C(=O)N[C@H](C(=O)O)[C@@H](C)O)NC(=O)[C@@H]2CSSC[C@H](NC(=O)[C@H](Cc3ccccc3)NC1=O)C(=O)N[C@H]1CSSC[C@H](NC(=O)[C@H](CCCCN)NC(=O)[C@H](CO)NC(=O)[C@H](CCCNC(=N)N)NC(=O)[C@H](Cc3c[nH]cn3)NC(=O)[C@@H]3CSSC[C@H](NC(=O)CNC1=O)C(=O)N3)C(=O)NCC(=O)N[C@@H](CCSC)C(=O)N2 [Hepcidin-22] (H-FPICIFCCGCCHRSKCGMCCKT-OH; disulfide 4-20, 7-19, 8-16, 10-11) | 106% | 96% | 150% | 127% | 160% | 135% | 117% | 105% | 104% | at least 10 fold | significantly less potent inducer of ferroportin degradation than hepcidin-25 | 96% | 89% |  | Hepcidin level after one day at 4°C, heparin plasma ([3]; results <1.0 nM deleted, CV (Hep-25/-24/-22/-20) 7/5/13/20, n = 15/7/6/10): 104%; remaining at 1 week (in vitro [5]; EDTA plasma): 98%
2 | CC[C@H](C)[C@@H]1NC(=O)[C@@H](NC(=O)[C@@H](NC(=O)[C@@H]2CCCN2C(=O)[C@H](Cc2ccccc2)NC(=O)[C@H](Cc2c[nH]cn2)NC(=O)[C@@H](N)[C@@H](C)O)[C@@H](C)CC)CSSC[C@@H](C(=O)N[C@@H](CCCCN)C(=O)N[C@H](C(=O)O)[C@@H](C)O)NC(=O)[C@@H]2CSSC[C@H](NC(=O)[C@H](Cc3ccccc3)NC1=O)C(=O)N[C@H]1CSSC[C@H](NC(=O)[C@H](CCCCN)NC(=O)[C@H](CO)NC(=O)[C@H](CCCNC(=N)N)NC(=O)[C@H](Cc3c[nH]cn3)NC(=O)[C@@H]3CSSC[C@H](NC(=O)CNC1=O)C(=O)N3)C(=O)NCC(=O)N[C@@H](CCSC)C(=O)N2 [Hepcidin-24] (H-THFPICIFCCGCCHRSKCGMCCKT-OH; disulfide 6-22, 9-21, 10-18, 12-13) | 113% | 106% | 104% | 120% | 116% | 128% |  |  |  |  | significantly less potent inducer of ferroportin degradation than hepcidin-25 | 91% | 114% | 96% | Hepcidin level after one week at RT, with protease inhibitors [2, 9]: 133%; Hepcidin level after one day at RT, with protease inhibitors [2, 10]: 122%; EC50 [4]: 192 nM; activity relative to hepcidin-25 (fold lower) ([4]; relative to hepcidin-25): 10 fold
3 | CC[C@H](C)[C@H](N)C(=O)N[C@H]1CSSC[C@@H](C(=O)N[C@@H](CCCCN)C(=O)N[C@H](C(=O)O)[C@@H](C)O)NC(=O)[C@@H]2CSSC[C@H](NC(=O)[C@H](Cc3ccccc3)NC(=O)[C@H]([C@@H](C)CC)NC1=O)C(=O)N[C@H]1CSSC[C@H](NC(=O)[C@H](CCCCN)NC(=O)[C@H](CO)NC(=O)[C@H](CCCNC(=N)N)NC(=O)[C@H](Cc3c[nH]cn3)NC(=O)[C@@H]3CSSC[C@H](NC(=O)CNC1=O)C(=O)N3)C(=O)NCC(=O)N[C@@H](CCSC)C(=O)N2 [Hepcidin-20] (H-ICIFCCGCCHRSKCGMCCKT-OH; disulfide 2-18, 5-17, 6-14, 8-9 (inferred); N-terminus and C-terminus assumed) |  |  | 138% | 115% | 164% | 141% | 114% | 118% | 94% | at least 10 fold | significantly less potent inducer of ferroportin degradation than hepcidin-25 |  | 102% | 183% | level of isoform emerging in control samples at RT ([2]; heparin plasma, healthy controls, 0–7 days): below 1 nM; Hepcidin level after one week at 4°C, heparin plasma ([3]; 7 days, CV (Hep-25/-24/-22/-20) 5/8/8/21, n = 15/7/6/10): 114%; Hepcidin level after one week at 4°C, EDTA plasma ([3]; 7 days, CV (Hep-25/-24/-22/-20) 9/8/18/21, n = 15/8/6/9, hepcidin-20 in stored EDTA plasma unreliable (additional peak)): 165%; Hepcidin level after one month at -20°C, EDTA plasma ([6]; 4 weeks, CV (Hep-25/-24/-22/-20) 9/11/19/40): 210%
